Laboratory results as given in patent publication US10517889B2, “Modulators of SMAD7 expression” (Ionis Pharmaceuticals, Inc., priority 2017, dated 2019).
Strand notation (5' to 3'): a small letter for the sugar, then the base; units joined by * are phosphorothioate-linked, units joined directly phosphodiester-linked; [ ] holds rarer units or linkages, { } end groups; capitals alone tell only the bases. e = 2'-O-(2-methoxyethyl) (MOE); [5mC] = 5-methylcytosine; d = 2'-deoxy (DNA)

Columns and labels:
Assay type in all cases: cell-based
human SMAD7 mRNA [1] = test: Antisense inhibition of human SMAD7 mRNA expression in Hep3B cells by 5-10-5 MOE gapmers, single concentration, electroporation, RT-PCR (Example 1, Study 1 and 2); conditions: for % Inhibition of SMAD7 mRNA: electroporation with 15,000 nM antisense oligonucleotide (Study 2); for % Inhibition: Study 2, electroporation with 15,000 nM antisense oligonucleotide
In short: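 Hep3B cells (20,000/well) electroporated with 5-10-5 MOE gapmer at 5,000 nM or 15,000 nM for approximately 24 h. SMAD7 mRNA quantified by real-time PCR with primer probe set RTS5062 and normalized to RIBOGREEN total RNA. Values are percent inhibition relative to untreated controls.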

human SMAD7 mRNA [2] = test: Antisense inhibition of human SMAD7 mRNA expression in Hep3B cells by 3-10-3 cEt gapmers, 10,000 nM, electroporation (Example 2); conditions: Hep3B cells, electroporation with 10,000 nM antisense oligonucleotide, approximately 24 hours, primer probe set RTS5062, relative to untreated control cells
In short: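 Hep3B, 20,000 cells/well; electroporation, 10,000 nM ASO; ~24 h. Readout: SMAD7 mRNA by qRT-PCR (RTS5062), RIBOGREEN-normalised; % inhibition vs untreated.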

human SMAD7 mRNA [3] = test: Dose-dependent inhibition of human SMAD7 mRNA expression in Hep3B cells (Example 3, Study 1 and 2); conditions: electroporation; for % inhibition of SMAD7 mRNA expression: approximately 16 hours
In short: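 Hep3B cells, 20,000 per well, electroporated with antisense oligonucleotide at 0.31, 1.25, 5.00 or 20.00 μM (first series) or 0.74, 2.22, 6.67 or 20.00 μM (second series). After ~16 h, SMAD7 mRNA measured by RT-qPCR (RTS5062), normalised to RIBOGREEN total RNA. Percent inhibition vs untreated cells; IC50 derived.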

[4] = 5-10-5 MOE gapmers targeting SEQ ID NO: 1 and 2
[5] = electroporation, 15,000 nM antisense oligonucleotide (Study 2), 5-10-5 MOE gapmers targeting SEQ ID NO: 1 and 2
[6] = 312.5 nM, Study 1, relative to untreated control cells
[7] = electroporation, 15,000 nM, approximately 24 hours, relative to untreated control cells, gapmers targeting SEQ ID NO: 1 and 2

Substance | % Inhibition of SMAD7 mRNA (human SMAD7 mRNA [1]; [4]) [%] | % inhibition of SMAD7 mRNA expression (human SMAD7 mRNA [1]; [5]) [%] | % Inhibition (human SMAD7 mRNA [2]) [%] | % inhibition of SMAD7 mRNA expression (human SMAD7 mRNA [2]) [%] | % inhibition of SMAD7 mRNA expression (human SMAD7 mRNA [3]; [6]) [%] | % inhibition of SMAD7 mRNA expression (human SMAD7 mRNA [3]; 740 nM, Study 2, relative to untreated control cells) [%] | % inhibition of SMAD7 mRNA expression (human SMAD7 mRNA [3]; 1250.0 nM, Study 1) [%] | % inhibition of SMAD7 mRNA expression (human SMAD7 mRNA [3]; 2220 nM, Study 2) [%] | % inhibition of SMAD7 mRNA expression (human SMAD7 mRNA [3]; 5000.0 nM, Study 1) [%] | % inhibition of SMAD7 mRNA expression (human SMAD7 mRNA [3]; 6670.0 nM, Study 2) [%] | % inhibition of SMAD7 mRNA expression (human SMAD7 mRNA [3]; 20000.0 nM, Study 1) [%] | % inhibition of SMAD7 mRNA expression (human SMAD7 mRNA [3]; 20000.0 nM, Study 2) [%] | IC50 (human SMAD7 mRNA [3]; Study 1 (312.5-20000 nM)) [µM] | IC50 (human SMAD7 mRNA [3]; Study 2 (740-20000 nM)) [µM] | % Inhibition (human SMAD7 mRNA [1]; [4]) [%] | % inhibition of SMAD7 mRNA expression (human SMAD7 mRNA [1]; [7]) [%] | % inhibition of SMAD7 mRNA expression (human SMAD7 mRNA [1]; electroporation, 5,000 nM, approximately 24 hours, relative to untreated control cells, gapmers targeting SEQ ID NO: 1 and 2) [%]
771576 (antisense eG*eG*eG*e[5mC]*eA*dG*dG*dA*dG*dA*dG*dA*d[5mC]*dA*d[5mC]*e[5mC]*eG*e[5mC]*eT*eT) [compound 771576] | 64 | 28 | 49 | 50 | 9 | 0 | 24 | 23 | 55 | 23 | 75 | 22 | 4 | > 20 | – | – | –
771808 (antisense e[5mC]*e[5mC]*e[5mC]*e[5mC]*eA*dA*dA*dG*dT*d[5mC]*d[5mC]*dA*d[5mC]*dG*d[5mC]*eT*e[5mC]*eA*eT*eG) [compound 771808] | 54 | 32 | – | – | 10 | – | 0 | – | 23 | – | 66 | – | 16 | – | – | – | –
771815 (antisense e[5mC]*eT*e[5mC]*e[5mC]*e[5mC]*dT*dT*dT*dT*d[5mC]*dA*d[5mC]*dT*dG*d[5mC]*eT*e[5mC]*e[5mC]*eA*e[5mC]) [compound 771815] | – | – | – | – | 0 | – | 0 | – | 22 | – | 46 | – | > 20 | – | 70 | – | –
771820 (antisense eG*eG*eT*e[5mC]*eA*dA*dA*d[5mC]*dT*dT*dG*dT*dG*dG*dT*eA*eA*eA*eA*eT) [compound 771820] | – | – | – | – | 3 | – | 3 | – | 7 | – | 7 | – | > 20 | – | 29 | – | –
771821 (antisense eG*eT*eT*e[5mC]*e[5mC]*dT*dT*dA*dT*dA*dG*dA*dT*dT*dA*eT*e[5mC]*e[5mC]*eA*eA) [compound 771821] | – | – | – | – | 0 | – | 9 | – | 27 | – | 46 | – | > 20 | – | – | 60 | –
771822 (antisense e[5mC]*eA*e[5mC]*e[5mC]*eA*dA*dA*dA*d[5mC]*dA*dA*dG*dT*dG*dT*e[5mC]*eT*eA*e[5mC]*e[5mC]) [compound 771822] | – | – | – | – | 0 | – | 0 | – | 30 | – | 45 | – | > 20 | – | 44 | – | –
771825 (antisense e[5mC]*eT*e[5mC]*eT*e[5mC]*dA*dT*dT*dT*d[5mC]*dT*dG*dG*dA*dA*e[5mC]*e[5mC]*e[5mC]*eA*e[5mC]) [compound 771825] | – | 76 | – | – | 15 | – | 29 | – | 17 | – | 66 | – | 15 | – | – | – | –
771831 (antisense e[5mC]*eG*eA*eT*e[5mC]*dA*dT*dT*dT*dT*d[5mC]*dT*dA*d[5mC]*dA*e[5mC]*e[5mC]*eT*eT*eT) [compound 771831] | – | – | – | – | 0 | – | 13 | – | 32 | – | 51 | – | 16 | – | 66 | – | –
771836 (antisense eT*eG*eT*eT*eG*dA*dG*dG*dA*d[5mC]*dT*d[5mC]*d[5mC]*d[5mC]*d[5mC]*eA*eG*e[5mC]*e[5mC]*eA) [compound 771836] | – | – | – | – | 6 | – | 25 | – | 22 | – | 41 | – | > 20 | – | 28 | – | –
771838 (antisense eG*eA*eA*e[5mC]*eT*d[5mC]*d[5mC]*dT*dG*d[5mC]*dA*dG*dG*dA*dT*eG*eA*eG*eG*eG) [compound 771838] | – | – | – | – | 0 | – | 24 | – | 26 | – | 43 | – | > 20 | – | 53 | – | –
771849 (antisense e[5mC]*eT*eA*eG*eG*d[5mC]*dT*dG*dG*dT*d[5mC]*dA*d[5mC]*dT*dT*e[5mC]*e[5mC]*eA*e[5mC]*eT) [compound 771849] | – | 66 | – | – | 25 | – | 0 | – | 10 | – | 35 | – | > 20 | – | – | – | –
771850 (antisense eT*e[5mC]*e[5mC]*e[5mC]*eA*d[5mC]*dT*dT*d[5mC]*dT*d[5mC]*d[5mC]*dT*d[5mC]*dT*eG*eG*e[5mC]*eT*eG) [compound 771850] | – | 58 | – | – | 0 | – | 8 | – | 20 | – | 44 | – | > 20 | – | – | – | –
771869 (antisense eA*eG*e[5mC]*e[5mC]*eA*dA*dG*dT*dG*dT*d[5mC]*d[5mC]*dA*dT*d[5mC]*eA*eA*eG*e[5mC]*eA) [compound 771869] | – | – | – | – | 10 | – | 0 | – | 24 | – | 43 | – | > 20 | – | – | 62 | –
771885 (antisense e[5mC]*eA*eA*eG*eT*d[5mC]*dT*d[5mC]*dT*dT*dA*d[5mC]*d[5mC]*dT*d[5mC]*eA*e[5mC]*e[5mC]*e[5mC]*eA) [compound 771885] | – | – | – | – | 0 | – | 4 | – | 20 | – | 45 | – | > 20 | – | – | 60 | –
771891 (antisense e[5mC]*eT*e[5mC]*e[5mC]*e[5mC]*dA*dA*dG*d[5mC]*d[5mC]*dT*dA*d[5mC]*dA*dT*eA*eT*eT*eT*e[5mC]) [compound 771891] | – | – | – | – | 0 | – | 0 | – | 10 | – | 33 | – | > 20 | – | 56 | – | 65
771900 (antisense eA*eT*eG*e[5mC]*e[5mC]*d[5mC]*dA*d[5mC]*d[5mC]*dA*dG*dT*d[5mC]*dT*dT*e[5mC]*e[5mC]*eT*eG*eA) [compound 771900] | – | – | – | – | 0 | – | 11 | – | 8 | – | 29 | – | > 20 | – | 32 | – | –
771902 (antisense eG*eG*eG*eT*eT*d[5mC]*dT*d[5mC]*d[5mC]*dA*dG*d[5mC]*d[5mC]*dG*d[5mC]*eT*e[5mC]*eA*eG*eA) [compound 771902] | – | – | – | – | 0 | – | 17 | – | 29 | – | 59 | – | 13 | – | 77 | – | –
771937 (antisense eT*e[5mC]*e[5mC]*eA*eG*dT*dG*d[5mC]*dT*dT*dG*dT*dG*d[5mC]*dA*eT*eG*eT*eG*e[5mC]) [compound 771937] | – | 52 | – | – | 0 | – | 0 | – | 4 | – | 41 | – | > 20 | – | – | – | –
771944 (antisense eG*eG*eT*eA*eA*dT*dT*dT*dT*d[5mC]*d[5mC]*dT*d[5mC]*dA*dA*e[5mC]*eA*eG*eG*e[5mC]) [compound 771944] | 50 | 8 | – | – | 0 | – | 34 | – | 35 | – | 48 | – | > 20 | – | – | – | –
